Structures are written as SMILES.

The species entered for assay [1] is Rattus norvegicus. The assay can be described thus: Inhibitory concentration against glucagon receptor -stimulated cAMP production in rat liver homogenates. The format is functional.
For assay [2], the species on record is Rattus norvegicus. The assay can be described thus: Tested for its ability to increase cAMP production (in the absence of glucagon) in rat liver homogenates; no measurable agonist activity. The format is functional.
Assay [3] addresses Glucagon receptor (Rattus norvegicus, UniProt P30082). Description: Tested against glucagon receptor for its ability to displace radiolabeled ([125I]-glucagon) in […] liver.

Sequence of Glucagon receptor (P30082 whole entry): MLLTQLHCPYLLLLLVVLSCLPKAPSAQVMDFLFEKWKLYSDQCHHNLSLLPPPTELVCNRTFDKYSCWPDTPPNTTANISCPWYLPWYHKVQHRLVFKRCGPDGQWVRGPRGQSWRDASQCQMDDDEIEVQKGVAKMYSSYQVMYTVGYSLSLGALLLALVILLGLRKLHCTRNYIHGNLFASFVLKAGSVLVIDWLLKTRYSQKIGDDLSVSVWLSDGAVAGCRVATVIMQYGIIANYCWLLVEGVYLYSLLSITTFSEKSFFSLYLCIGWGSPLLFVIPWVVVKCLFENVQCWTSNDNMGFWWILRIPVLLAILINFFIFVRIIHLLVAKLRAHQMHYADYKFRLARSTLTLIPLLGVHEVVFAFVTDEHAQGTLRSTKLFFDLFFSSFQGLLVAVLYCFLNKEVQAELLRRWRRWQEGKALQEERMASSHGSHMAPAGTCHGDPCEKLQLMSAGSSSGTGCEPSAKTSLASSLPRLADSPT

The term IC50 denotes the midpoint of a concentration-inhibition curve. Low values mean higher potency, high ones lower potency. As for `CN(C)CCCN(C)c1nc2cc(Cl)c(Cl)cc2nc1/C=C/c1ccccc1`, the IC50 was 7 µM in assay [1], over 32 µM in assay [2] and 4 µM in assay [3].

The record behind these values is ChEMBL document CHEMBL1126462, “CP-99,711: a non-peptide glucagon receptor antagonist” (Bioorg Med Chem Lett, 1992).
